Assays:
GPC2 mRNA = GPC2 mRNA knockdown in multiple cancer cell lines, 96 hour (Example 3); assay type: cell-based, human; conditions: 96 hour incubation
Method: siRNAs 1-5 from Table 7 were diluted to 40 nM in OptiMEM media and mixed in a 1:3 ratio (weight by volume) with RNAiMAX. This was incubated for 15 minutes at room temperature and dispensed onto cells plated in a 6 well tissue culture plate. Total RNA samples were collected at either 72 hours post transfection to compare knockdown efficiency (FIG. 2A), or at 24, 48, 72 or 96 hours post transfection to determine the extent of GPC2 mRNA knockdown over time (FIG. 2B). Expression levels of mRNA of GPC2 were measured in these samples using primers specific for GPC2 obtained commercially from Thermofisher (Carlsbad, Calif.) and standard qPCR technique.
GPC2 mRNA knockdown and changes in cell viability were assessed in multiple cancer cell lines. Cells were transfected with either a scrambled control siRNA or with GPC2 siRNA sequence 3 or sequence 5 from Table 7 using the RNAiMAX Lipofectamine kit (Invitrogen, Carlsbad, Calif.) as previously described in Example 2, either in 96 well format (for viability assays) or 6 well format (for knockdown assessment). Following a 96 hour incubation period, cells were washed and the viability measurement was assessed using Cell Titer Glo 2.0. Total RNA was isolated from the 6 well plate samples to determine knockdown efficiency.

CHLA-136 cells = assay: Cisplatin IC50 in siRNA-transfected cells, Cell Titer Glo 2.0 viability (Example 5); assay type: cell-based
Method: (§1) GPC2 mRNA was reduced using the indicated siRNAs and changes in cell viability were assessed in multiple cancer cell lines, in combination with Cisplatin treatment. Cells were transfected with either a scrambled control siRNA or with GPC2 siRNA sequences 3 or 5 from Table 7 using the RNAiMAX Lipofectamine kit (Invitrogen, Carlsbad, Calif.), as previously described, in either in 96 well (for viability assays) or 6 well format (for total RNA). Cisplatin was added at increasing concentrations (0 to 30 uM) to transfected cells at 24 hours post transfection. Following a 72 hour incubation period, cell viability was measured using Cell Titer Glo 2.0. Total RNA samples were also isolated to measure knockdown efficiency.

CHLA-172 cells = assay: as above; assay type: cell-based
Method: as §1

CHLA-90 cells [1] = assay: as above; assay type: cell-based
Method: as §1

CHP212 cells [2] = assay: as above; assay type: cell-based
Method: as §1

COV362 cells = assay: as above; assay type: cell-based
Method: as §1

GIST-T1 cells = assay: as above; assay type: cell-based; conditions: GIST-T1 cells transfected with the labelled siRNA; cisplatin added 24 hours post transfection, 72 hour incubation
Method: as §1

KELLY cells = assay: as above; assay type: cell-based; conditions: KELLY cells transfected with the labelled siRNA; cisplatin added 24 hours post transfection, 72 hour incubation
Method: as §1

RH30 cells = assay: as above; assay type: cell-based
Method: as §1

RH41 cells = assay: as above; assay type: cell-based; conditions: RH41 cells transfected with the labelled siRNA; cisplatin added 24 hours post transfection, 72 hour incubation
Method: as §1

SH-SY5Y cells [3] = assay: as above; assay type: cell-based; conditions: SH-SY5Y cells transfected with the labelled siRNA; cisplatin added 24 hours post transfection, 72 hour incubation
Method: as §1

SK-N-BE2 cells [4] = assay: as above; assay type: cell-based; conditions: SK-N-BE2 cells transfected with the labelled siRNA; cisplatin added 24 hours post transfection, 72 hour incubation
Method: as §1

SKNAS cells = assay: as above; assay type: cell-based
Method: as §1

SNU16 cells = assay: as above; assay type: cell-based
Method: as §1

TC32 cells = assay: as above; assay type: cell-based
Method: as §1

TC71 cells = assay: as above; assay type: cell-based
Method: as §1

TOV112D cells = assay: as above; assay type: cell-based
Method: as §1

CHLA-90 cells [5] = assay: Carboplatin IC50 in siRNA-transfected cells, Cell Titer Glo 2.0 viability (Example 6); assay type: cell-based
Method: (§2) GPC2 mRNA expression was reduced using the indicated siRNAs and changes in cell viability were assessed in multiple neuroblastoma cell lines. Cells were transfected with either a control siRNA or with GPC2 siRNA sequences 3, 5 or 7 from Table 7 using the RNAiMAX Lipofectamine kit (Invitrogen, Carlsbad, Calif.) as previously described in 96 wells for viability assays. Carboplatin was added at increasing concentrations (0 to 150 uM) to transfected cells at 24 hours post transfection. Following a 72 hour incubation period, viability measurements were made using Cell Titer Glo 2.0.

CHP212 cells [6] = assay: as above; assay type: cell-based
Method: as §2

SH-SY5Y cells [7] = assay: as above; assay type: cell-based; conditions: SH-SY5Y cells transfected with the labelled siRNA; carboplatin added 24 hours post transfection, 72 hour incubation
Method: as §2

SK-N-BE2 cells [8] = assay: as above; assay type: cell-based
Method: as §2

Substance: GPC2 siRNA 3: siRNA duplex: sense CCUGCUUGGACCUCGAUAA[dT][dT] (SEQ ID NO: 207), anti-sense UUAUCGAGGUCCAAGCAGG[dT][dT] (SEQ ID NO: 208) (sense CCUGCUUGGACCUCGAUAANN; antisense UUAUCGAGGUCCAAGCAGGNN; 3' dTdT overhangs, chemistry not fully specified; listed as Homo sapiens)
- % GPC2 knockdown (GPC2 mRNA; CHP212 (Neuroblastoma)): 50%
- % GPC2 knockdown (GPC2 mRNA; COV362 (Ovarian Carcinoma)): 85%
- % GPC2 knockdown (GPC2 mRNA; GIST-T1 (Gastrointestinal Stromal)): 61%
- % GPC2 knockdown (GPC2 mRNA; IMR32 (Neuroblastoma)): 36%
- % GPC2 knockdown (GPC2 mRNA; MCF7 (Breast)): 72%
- % GPC2 knockdown (GPC2 mRNA; RH30 (Rhabdomyosarcoma)): 78%
- % GPC2 knockdown (GPC2 mRNA; RH41 (Rhabdomyosarcoma)): 37%
- % GPC2 knockdown (GPC2 mRNA; SKNAS (Neuroblastoma)): 25%
- % GPC2 knockdown (GPC2 mRNA; SNU16 (Gastric)): 53%
- % GPC2 knockdown (GPC2 mRNA; TC32 (Ewing's Sarcoma)): 69%
- % GPC2 knockdown (GPC2 mRNA; TC71 (Ewing's Sarcoma)): 42%
- % GPC2 knockdown (GPC2 mRNA; TOV112D (Ovarian Carcinoma)): 89%
- GPC2 knockdown across the cell lines of Table 8 (GPC2 mRNA; multiple cancer cell lines): GPC2 knockdown was observed in each cell line
- Data Summary: effect of knockdown on sensitivity to cisplatin (CHLA-136 cells; CHLA-136): increases sensitivity to
- IC50 (CHLA-136 cells; CHLA-136 cells transfected with the labelled siRNA, cisplatin added 24 hours post transfection, 72 hour incubation): 11 µM
- Data Summary: effect of knockdown on sensitivity to cisplatin (CHLA-172 cells; CHLA-172): does not increase
- IC50 (CHLA-172 cells; CHLA-172 cells transfected with the labelled siRNA, cisplatin added 24 hours post transfection, 72 hour incubation): 16 µM
- Data Summary: effect of knockdown on sensitivity to cisplatin (CHLA-90 cells [1]; CHLA-90): increases sensitivity to
- IC50 (CHLA-90 cells [1]; CHLA-90 cells transfected with the labelled siRNA, cisplatin added 24 hours post transfection, 72 hour incubation): 15 µM
- Data Summary: effect of knockdown on sensitivity to cisplatin (CHP212 cells [2]; CHP212): increases sensitivity to
- IC50 (CHP212 cells [2]; CHP212 cells transfected with the labelled siRNA, cisplatin added 24 hours post transfection, 72 hour incubation): 7.4 µM
- Data Summary: effect of knockdown on sensitivity to cisplatin (COV362 cells; COV362): does not increase
- IC50 (COV362 cells; COV362 cells transfected with the labelled siRNA, cisplatin added 24 hours post transfection, 72 hour incubation): 6.4 µM
- IC50 (GIST-T1 cells): 13 µM
- IC50 (KELLY cells): 21.7 µM
- Data Summary: effect of knockdown on sensitivity to cisplatin (RH30 cells; RH30): does not increase
- IC50 (RH30 cells; RH30 cells transfected with the labelled siRNA, cisplatin added 24 hours post transfection, 72 hour incubation): 2.1 µM
- IC50 (RH41 cells): 3.2 µM
- IC50 (SH-SY5Y cells [3]): 17.6 µM
- IC50 (SK-N-BE2 cells [4]): 8 µM
- Data Summary: effect of knockdown on sensitivity to cisplatin (SKNAS cells; SKNAS): increases sensitivity to
- IC50 (SKNAS cells; SKNAS cells transfected with the labelled siRNA, cisplatin added 24 hours post transfection, 72 hour incubation): 20 µM
- Data Summary: effect of knockdown on sensitivity to cisplatin (SNU16 cells; SNU16): does not increase
- IC50 (SNU16 cells; SNU16 cells transfected with the labelled siRNA, cisplatin added 24 hours post transfection, 72 hour incubation): 16 µM
- Data Summary: effect of knockdown on sensitivity to cisplatin (TC32 cells; TC32): does not increase
- IC50 (TC32 cells; TC32 cells transfected with the labelled siRNA, cisplatin added 24 hours post transfection, 72 hour incubation): 2.3 µM
- Data Summary: effect of knockdown on sensitivity to cisplatin (TC71 cells; TC71): does not increase
- IC50 (TC71 cells; TC71 cells transfected with the labelled siRNA, cisplatin added 24 hours post transfection, 72 hour incubation): 1.3 µM
- Data Summary: effect of knockdown on sensitivity to cisplatin (TOV112D cells; TOV112D): does not increase
- IC50 (TOV112D cells; TOV112D cells transfected with the labelled siRNA, cisplatin added 24 hours post transfection, 72 hour incubation): 5 µM
- Data Summary: effect of knockdown on sensitivity to carboplatin (CHLA-90 cells [5]; CHLA-90): increases sensitivity to
- IC50 (CHLA-90 cells [5]; CHLA-90 cells transfected with the labelled siRNA, carboplatin added 24 hours post transfection, 72 hour incubation): 100 µM
- Data Summary: effect of knockdown on sensitivity to carboplatin (CHP212 cells [6]; CHP212): increases sensitivity to
- IC50 (CHP212 cells [6]; CHP212 cells transfected with the labelled siRNA, carboplatin added 24 hours post transfection, 72 hour incubation): 19.9 µM
- IC50 (SH-SY5Y cells [7]): 2.3 µM
- Data Summary: effect of knockdown on sensitivity to carboplatin (SK-N-BE2 cells [8]; SK-N-BE2): increases sensitivity to
- IC50 (SK-N-BE2 cells [8]; SK-N-BE2 cells transfected with the labelled siRNA, carboplatin added 24 hours post transfection, 72 hour incubation): 27.9 µM

From patent publication US20210171948A1, “COMPOSITIONS AND METHODS FOR TARGETING GLYPICAN-2 IN THE TREATMENT OF CANCER” (Shepherd Therapeutics, Inc., priority 2019, published 2021)
